Assay results: BindingDB's records for doi:10.1021/acs.biochem.7b00041 (North Carolina State University, 2017)

target: T1, Dehaloperoxidase B (Amphitrite ornata, UniProt Q9NAV7); experiment: Resonance Raman Assay; details: pH 7
T1 sequence (Q9NAV7 whole entry): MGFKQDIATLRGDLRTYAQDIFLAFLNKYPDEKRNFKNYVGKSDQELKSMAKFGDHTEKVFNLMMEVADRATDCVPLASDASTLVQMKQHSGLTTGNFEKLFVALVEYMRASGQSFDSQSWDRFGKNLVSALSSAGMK
Description: Samples for solution resonance Raman spectroscopic studies were prepared withfinal concentrations of 75 μM WT DHP B and 3.75 mM azole in 100 mM KPi (pH 7 or 9) containing 10% MeOH (v/v) and then transferred to a 5 mm outside diameter glass NMR tube. Anaerobic samples were prepared inside a glovebox in the same fashion using septum-capped NMR tubes. Spectra were recorded by Soret band excitation (400−430 nm, 60 mW power) as previously described. [Barrios et al., J. Am. Chem. Soc., 136:7914-7925]

**Q.** How did the Kd turn out when `c1c[nH]cn1` was run?
**A.** The Kd was 52 µM.

**Q.** With “1,2,3-benzotriazole::Benzotriazole (Bta)” as the compound, how does the Kd read?
**A.** Its Kd is 82 µM.

**Q.** `c1ccc2[nH]cnc2c1` [1H-1,3-benzodiazole] was tested. Which Kd did it give?
**A.** Its Kd is 110 µM.
